Measured values published in ChEMBL document CHEMBL5385944, “Hydrazyl hydroxycoumarins as new potential conquerors towards Pseudomonas aeruginosa” (Bioorg Med Chem Lett, 2024).
≈ marks a conversion by molar mass, not a printed value.

What was measured:
Type in all cases: functional
[1] = system: Staphylococcus aureus; assay: Antibacterial activity against Staphylococcus aureus ATCC 29213 assessed as reduction in bacterial growth by CLSI protocol based method
[2] = system: Pseudomonas aeruginosa; assay: Antibacterial activity against Pseudomonas aeruginosa ATCC 10104 assessed as reduction in bacterial growth by CLSI protocol based method
[3] = system: Pseudomonas aeruginosa; assay: Antibacterial activity against Pseudomonas aeruginosa ATCC 90027 assessed as reduction in bacterial growth by CLSI protocol based method
[4] = system: Klebsiella pneumoniae; assay: Antibacterial activity against Klebsiella pneumoniae assessed as reduction in bacterial growth by CLSI protocol based method
[5] = system: Enterococcus faecalis; assay: Antibacterial activity against Enterococcus faecalis assessed as reduction in bacterial growth by CLSI protocol based method
[6] = system: Pseudomonas aeruginosa; assay: Antibacterial activity against Pseudomonas aeruginosa assessed as reduction in bacterial growth by CLSI protocol based method
[7] = system: Staphylococcus aureus; assay: Antibacterial activity against methicillin resistant Staphylococcus aureus 43300 assessed as reduction in bacterial growth by CLSI protocol based method
[8] = system: Acinetobacter baumannii; assay: Antibacterial activity against Acinetobacter baumannii assessed as reduction in bacterial growth by CLSI protocol based method
[9] = system: Staphylococcus aureus; assay: Antibacterial activity against methicillin resistant Staphylococcus aureus assessed as reduction in bacterial growth by CLSI protocol based method
[10] = system: Staphylococcus aureus; assay: Antibacterial activity against Staphylococcus aureus ATCC 25923 assessed as reduction in bacterial growth by CLSI protocol based method
[11] = system: Escherichia coli; assay: Antibacterial activity against Escherichia coli ATCC 25922 assessed as reduction in bacterial growth by CLSI protocol based method
[12] = system: Pseudomonas aeruginosa; assay: Antibacterial activity against Pseudomonas aeruginosa ATCC 27853 assessed as reduction in bacterial growth by CLSI protocol based method
[13] = Induction of drug resistance in Pseudomonas aeruginosa ATCC 27853 measured after 12 passages

Structure (SMILES)	MIC [1] [µg/mL]	MIC [2] [µg/mL]	MIC [3] [µg/mL]	MIC [4] [µg/mL]	MIC [5] [µg/mL]	MIC [6] [µg/mL]	MIC [7] [µg/mL]	MIC [8] [µg/mL]	MIC [9] [µg/mL]	MIC [10] [µg/mL]	MIC [11] [µg/mL]	MIC [12] [µg/mL]	MIC [13] [µg/mL]
O=c1ccc2ccc(O)c(/C=N/NS(=O)(=O)c3ccccc3)c2o1	32 (≈ 92.9 µM)	512 (≈ 1490 µM)	512 (≈ 1490 µM)	2 (≈ 5.81 µM)	512 (≈ 1490 µM)	512 (≈ 1490 µM)	512 (≈ 1490 µM)	512 (≈ 1490 µM)	512 (≈ 1490 µM)	512 (≈ 1490 µM)	512 (≈ 1490 µM)	512 (≈ 1490 µM)	
O=c1ccc2ccc(O)c(/C=N/NS(=O)(=O)c3ccc(Cl)cc3)c2o1	4 (≈ 10.6 µM)	512 (≈ 1350 µM)	512 (≈ 1350 µM)	256 (≈ 676 µM)	512 (≈ 1350 µM)	256 (≈ 676 µM)	512 (≈ 1350 µM)	512 (≈ 1350 µM)	512 (≈ 1350 µM)	512 (≈ 1350 µM)	256 (≈ 676 µM)	512 (≈ 1350 µM)	
O=c1ccc2ccc(O)c(/C=N/NS(=O)(=O)c3cccc4ccccc34)c2o1	512 (≈ 1300 µM)	128 (≈ 325 µM)	256 (≈ 649 µM)	512 (≈ 1300 µM)	512 (≈ 1300 µM)	64 (≈ 162 µM)	16 (≈ 40.6 µM)	256 (≈ 649 µM)	256 (≈ 649 µM)	512 (≈ 1300 µM)	256 (≈ 649 µM)	256 (≈ 649 µM)	
O=C(N/N=C/c1c(O)ccc2ccc(=O)oc12)c1ccccc1	512 (≈ 1660 µM)	1 (≈ 3.24 µM)	32 (≈ 104 µM)	32 (≈ 104 µM)	128 (≈ 415 µM)	16 (≈ 51.9 µM)	512 (≈ 1660 µM)	512 (≈ 1660 µM)	256 (≈ 830 µM)	2 (≈ 6.49 µM)	2 (≈ 6.49 µM)	256 (≈ 830 µM)	
O=C(N/N=C/c1c(O)ccc2ccc(=O)oc12)c1ccc(O)cc1	512 (≈ 1580 µM)	512 (≈ 1580 µM)	512 (≈ 1580 µM)	256 (≈ 789 µM)	512 (≈ 1580 µM)	512 (≈ 1580 µM)	512 (≈ 1580 µM)	512 (≈ 1580 µM)	512 (≈ 1580 µM)	512 (≈ 1580 µM)	512 (≈ 1580 µM)	512 (≈ 1580 µM)	
Cc1ccc(S(=O)(=O)N/N=C/c2c(O)ccc3ccc(=O)oc23)cc1	256 (≈ 714 µM)	512 (≈ 1430 µM)	512 (≈ 1430 µM)	512 (≈ 1430 µM)	512 (≈ 1430 µM)	512 (≈ 1430 µM)	512 (≈ 1430 µM)	512 (≈ 1430 µM)	512 (≈ 1430 µM)	512 (≈ 1430 µM)	256 (≈ 714 µM)	512 (≈ 1430 µM)	
N/N=C/c1c(O)ccc2ccc(=O)oc12	512 (≈ 2510 µM)	512 (≈ 2510 µM)	512 (≈ 2510 µM)	128 (≈ 627 µM)	512 (≈ 2510 µM)	512 (≈ 2510 µM)	128 (≈ 627 µM)	256 (≈ 1250 µM)	128 (≈ 627 µM)	16 (≈ 78.4 µM)	32 (≈ 157 µM)	128 (≈ 627 µM)	
O=C(N/N=C/c1c(O)ccc2ccc(=O)oc12)c1ccc(Cl)cc1	256 (≈ 747 µM)	32 (≈ 93.4 µM)	256 (≈ 747 µM)	256 (≈ 747 µM)	256 (≈ 747 µM)	256 (≈ 747 µM)	512 (≈ 1490 µM)	256 (≈ 747 µM)	512 (≈ 1490 µM)	256 (≈ 747 µM)	256 (≈ 747 µM)	256 (≈ 747 µM)	
O=c1ccc2ccc(O)c(/C=N/NS(=O)(=O)Cc3ccccc3)c2o1	16 (≈ 44.6 µM)	512 (≈ 1430 µM)	512 (≈ 1430 µM)	512 (≈ 1430 µM)	128 (≈ 357 µM)	512 (≈ 1430 µM)	512 (≈ 1430 µM)	512 (≈ 1430 µM)	256 (≈ 714 µM)	38 (≈ 106 µM)	256 (≈ 714 µM)	512 (≈ 1430 µM)	
O=c1ccc2ccc(O)c(/C=N/Nc3ccc(S(=O)(=O)Nc4nccs4)cc3)c2o1	256 (≈ 579 µM)	512 (≈ 1160 µM)	256 (≈ 579 µM)	512 (≈ 1160 µM)	512 (≈ 1160 µM)	256 (≈ 579 µM)	512 (≈ 1160 µM)	256 (≈ 579 µM)	512 (≈ 1160 µM)	256 (≈ 579 µM)	512 (≈ 1160 µM)	256 (≈ 579 µM)	
Nc1ncc(C(=O)N/N=C/c2c(O)ccc3ccc(=O)oc23)s1	256 (≈ 775 µM)	2 (≈ 6.05 µM)	1 (≈ 3.03 µM)	8 (≈ 24.2 µM)	128 (≈ 387 µM)	256 (≈ 775 µM)	64 (≈ 194 µM)	1 (≈ 3.03 µM)	16 (≈ 48.4 µM)	1 (≈ 3.03 µM)	128 (≈ 387 µM)	32 (≈ 96.9 µM)	
CC(=O)Nc1ccc(S(=O)(=O)N/N=C/c2c(O)ccc3ccc(=O)oc23)cc1	512 (≈ 1280 µM)	512 (≈ 1280 µM)	64 (≈ 159 µM)	512 (≈ 1280 µM)	512 (≈ 1280 µM)	512 (≈ 1280 µM)	512 (≈ 1280 µM)	128 (≈ 319 µM)	512 (≈ 1280 µM)	512 (≈ 1280 µM)	256 (≈ 638 µM)	512 (≈ 1280 µM)	
O=c1ccc2ccc(O)c(/C=N/NS(=O)(=O)c3cccc4c3OCC4)c2o1	512 (≈ 1330 µM)	512 (≈ 1330 µM)	512 (≈ 1330 µM)	512 (≈ 1330 µM)	512 (≈ 1330 µM)	512 (≈ 1330 µM)	512 (≈ 1330 µM)	512 (≈ 1330 µM)	512 (≈ 1330 µM)	512 (≈ 1330 µM)	512 (≈ 1330 µM)	512 (≈ 1330 µM)	
O=C(N/N=C/c1c(O)ccc2ccc(=O)oc12)c1ccc(F)cc1	512 (≈ 1570 µM)	128 (≈ 392 µM)	512 (≈ 1570 µM)	256 (≈ 785 µM)	512 (≈ 1570 µM)	512 (≈ 1570 µM)	16 (≈ 49 µM)	256 (≈ 785 µM)	512 (≈ 1570 µM)	256 (≈ 785 µM)	256 (≈ 785 µM)	512 (≈ 1570 µM)	
Nc1ccc(C(=O)N/N=C/c2c(O)ccc3ccc(=O)oc23)cc1	512 (≈ 1580 µM)	512 (≈ 1580 µM)		256 (≈ 792 µM)	32 (≈ 99 µM)	512 (≈ 1580 µM)	512 (≈ 1580 µM)	256 (≈ 792 µM)	512 (≈ 1580 µM)	512 (≈ 1580 µM)	512 (≈ 1580 µM)	512 (≈ 1580 µM)	
Cc1ncc([N+](=O)[O-])n1CC(=O)N/N=C/c1c(O)ccc2ccc(=O)oc12	256 (≈ 689 µM)	64 (≈ 172 µM)	32 (≈ 86.2 µM)	256 (≈ 689 µM)	32 (≈ 86.2 µM)	256 (≈ 689 µM)	128 (≈ 345 µM)	256 (≈ 689 µM)	256 (≈ 689 µM)	4 (≈ 10.8 µM)	256 (≈ 689 µM)	8 (≈ 21.5 µM)	
N=C(N)N/N=C/c1c(O)ccc2ccc(=O)oc12	64 (≈ 260 µM)	512 (≈ 2080 µM)	4 (≈ 16.2 µM)	512 (≈ 2080 µM)	32 (≈ 130 µM)	4 (≈ 16.2 µM)	256 (≈ 1040 µM)	256 (≈ 1040 µM)	512 (≈ 2080 µM)	512 (≈ 2080 µM)	256 (≈ 1040 µM)	256 (≈ 1040 µM)	
COC(=O)N/N=C/c1c(O)ccc2ccc(=O)oc12	512 (≈ 1950 µM)	512 (≈ 1950 µM)	128 (≈ 488 µM)	128 (≈ 488 µM)	256 (≈ 976 µM)	32 (≈ 122 µM)	512 (≈ 1950 µM)	128 (≈ 488 µM)	512 (≈ 1950 µM)	64 (≈ 244 µM)	1 (≈ 3.81 µM)	256 (≈ 976 µM)	
CCn1cc(C(=O)O)c(=O)c2cc(F)c(N3CCNCC3)cc21 [NORFLOXACIN]	2 (≈ 6.26 µM)	5 (≈ 15.7 µM)	2 (≈ 6.26 µM)	4 (≈ 12.5 µM)	4 (≈ 12.5 µM)	4 (≈ 12.5 µM)	8 (≈ 25.1 µM)	2 (≈ 6.26 µM)	4 (≈ 12.5 µM)	2 (≈ 6.26 µM)	4 (≈ 12.5 µM)	4 (≈ 12.5 µM)	128 (≈ 401 µM)
O=C(N/N=C/c1c(O)ccc2ccc(=O)oc12)c1ccc([N+](=O)[O-])cc1	512 (≈ 1450 µM)	512 (≈ 1450 µM)	512 (≈ 1450 µM)	512 (≈ 1450 µM)	512 (≈ 1450 µM)	512 (≈ 1450 µM)	512 (≈ 1450 µM)	512 (≈ 1450 µM)	512 (≈ 1450 µM)	512 (≈ 1450 µM)	4 (≈ 11.3 µM)	512 (≈ 1450 µM)	
Cc1cc(NS(=O)(=O)c2ccc(N/N=C/c3c(O)ccc4ccc(=O)oc34)cc2)no1	512 (≈ 1160 µM)	256 (≈ 581 µM)	256 (≈ 581 µM)	256 (≈ 581 µM)	256 (≈ 581 µM)	512 (≈ 1160 µM)	512 (≈ 1160 µM)	256 (≈ 581 µM)	256 (≈ 581 µM)	256 (≈ 581 µM)	512 (≈ 1160 µM)	512 (≈ 1160 µM)	
